Assay results from patent US20260102460A1, “NOVEL COMBINATIONS OF ANTIBIOTICS AND NON-ANTIBIOTIC DRUGS EFFECTIVE IN VIVO AGAINST GRAM-POSITIVE BACTERIA, IN PARTICULAR METHICILLIN-RESISTANT S. AUREUS (MRSA)” (EUROPEAN MOLECULAR BIOLOGY LABORATORY, priority 2022, published 2026).
Entries after “also recorded” stand apart in the source; their conditions may differ.

Tests used:
[1] = system: MRSA; assay: G. mellonella infection model, drug combination therapy; format: in vivo, Galleria mellonella; details: G. mellonella infected with MRSA isolate resistant to tigecycline, gentamicin 2 μg/ml, ticagrelor 100 μg/ml (FIG. 5e)
Source text: (§1) Drug interaction networks in S. aureus, with drugs grouped according to their class (a) or targeted cellular process (b). Unique interactions across both strains tested are considered (i=331). Edge thickness represents the proportion of interactions for each node pair, considering all possible interactions given the number of drugs in each node. Nodes depict the drug class (a) or the targeted cellular process (b), and size is proportional to the number of drugs in the represented class/process. Only interacting drugs are considered (d=62). Synergies, antagonisms and nodes are colored according to FIG. 1. c. Novel and previously reported interactions detected in S. aureus. Interactions are considered known if reported in any S. aureus strain (Supplementary Table 4). d-e. Novel synergies are effective against MRSA clinical isolates in vitro (d) and in vivo in the G. mellonella infection model (e). […] The percentage of surviving larvae after treatment and in the untreated controls was monitored over time. […]
Larvae of the greater wax moth (Galleria mellonella) at their final instar larval stage were used for evaluation of selected drug combinations to assess their efficacy against MRSA in vivo. […] The survival of Galleria larvae was monitored at the indicated time points by two observers independently. Each strain-drug combination was evaluated in three independent experiments.

[2] = system: MRSA clinical isolates; assay: 8×8 broth microdilution checkerboard assays; format: cell-based, Staphylococcus aureus; details: MSSA and MRSA
Source text: as §1
Combinations were tested in the same experimental conditions as for the screen, but at higher concentration resolution: drugs were diluted in eight concentrations spanning linearly-space gradients to assemble 8×8 checkerboards for each combination tested. […] Data was analyzed with the same pipeline as for the screen (Methods).

[3] = system: S. aureus DSM 20231; assay: Adjuvant (extended non-antibiotic) combination screen; format: cell-based, Staphylococcus aureus
Procedure: MICs were tested in all strains for the main screen. Drugs were two-fold serially diluted in 11 concentrations, and 32 no-drug control wells were included in each plate. Experiments were conducted in 384-well plates (ref. 781271 by Greiner BioOne), with a total volume of 30 μl for S. aureus and B. subtilis and 55 μl for S. pneumoniae. Volumes were optimized for each strain to achieve good dynamic range for growth and minimize risk of cross-contamination between wells. Plates were inoculated with a starting optical density at 595 nm (OD595 nm) of 0.01 from an overnight culture. All liquid handling was performed using a Biomek FX liquid handler (Beckman Coulter). Plates were sealed with breathable membranes and incubated at 37° C. OD595 nm was measured every 30 minutes for 14 hours. The MIC was considered as the first concentration at which growth was inhibited. Experiments were conducted in biological duplicates. For the adjuvant screen, antibiotics were tested in S. aureus DSM 20231 at the same concentrations as for the main screen. Non-antibiotics concentrations were selected to fall within therapeutic ranges.
62 drugs, hereafter designated as recipients, were arrayed in 384-well plates (ref. 781271 by Greiner BioOne) in three two-fold serial dilutions and two technical replicates. Concentrations were selected according to MICs, with the highest concentration corresponding to the MIC, and the intermediate and lowest concentration corresponding to ½ and ¼ MIC, respectively. Plates were kept frozen and defrosted upon each experimental run, when the same 62 drugs and in the same three concentrations were added as donor drugs (one drug at one concentration for each recipient plate). A few drugs were screened only as donors: the combinations co-amoxiclav and cotrimoxazole in B. subtilis and S. aureus DSM 20231; co-amoxiclav, clavulanic acid, pseudomonic acid and cefuroxime in S. aureus Newman. All donor drugs were tested in two biological replicates. Control wells were included in each plate (six no-drug wells, three plain medium wells and three wells containing only the donor drug). After the addition of donor drugs, plates were inoculated with cells. Handling, inoculation, growth conditions, plate incubation and OD595 nm measurements were performed as for the MIC determination.
For the adjuvant screen, 44 non-antibiotic drugs were tested against the same recipient drugs of the main screen for S. aureus DSM 20231.
The inventors selected 44 drugs to include pharmaceuticals that can be co-administered with antibiotics in S. aureus infections or non-antibiotics with previously reported antibacterial activity against S. aureus. […] Interactions were scored and benchmarked as for the main screen (Methods).

[4] = system: MRSA; details: ticagrelor 10 μg/mL combined with vancomycin 4 μg/mL; cited from earlier work
[5] = system: S. aureus Newman; assay: Two-dimensional thermal proteome profiling (2D-TPP), whole cell and lysate; format: cell-based, Staphylococcus aureus; details: for thermal stability of ATP- and GTP-binding enzymes and transporters: ticagrelor 0.04-4 μg/ml

SMILES: CCCSc1nc(N[C@@H]2C[C@H]2c2ccc(F)c(F)c2)c2nnn([C@@H]3C[C@H](OCCO)[C@@H](O)[C@H]3O)c2n1 [ticagrelor]
- interaction with gentamicin in vivo (survival of infected larvae) [1]: evident
- interaction with gentamicin in vivo (survival of infected larvae) ([1]; listed as Ticagrelor): synergizes
- interaction with gentamicin at growth inhibition level ([2]; MRSA isolate resistant to tigecycline (FIG. 5c), ticagrelor combined with gentamicin): sensitized; also recorded: synergizes
- sensitization to cationic peptide nisin ([2]; ticagrelor combined with nisin): sensitized
- number of synergies ([3]; S. aureus, non-antibiotic drugs with antibiotics): 13
- number of interactions ([3]; among the 44 non-antibiotics tested, against panel of 62 drugs, S. aureus DSM 20231): 27
- initial MRSA inoculum killed [4]: approximately 50%
- abundance of purine biosynthesis enzymes (PurC, PurD, PurE, PurF, PurK, PurL, PurM, PurN, PurQ) ([5]; live cells): induction
- thermal stability of DltC and DltD (LTA D-alanylation) ([5]; lysate): destabilized
- thermal stability of ClfA, ClfB, coagulase Coa and vWBP ([5]; lysate, clinically-relevant ticagrelor concentration): destabilization
- thermal stability of ATP- and GTP-binding enzymes and transporters ([5]; lysate): destabilization
- thermal stability of TagG (WTA translocase subunit) ([5]; whole cell sample): destabilized
- thermal stability of ATP- and GTP-binding enzymes and transporters ([5]; whole cell): destabilization
- abundance of ClfA, ClfB, coagulase Coa and vWBP ([5]; whole-cell samples, clinically-relevant ticagrelor concentration): downregulation
